In patent US5484803A, “Transcutaneous in vivo activation of photosensitive agents in blood” (priority 1995, dated 1996):
Values joined by “and” are separate entries in the source; they are usually repeats but may differ in a detail not shown here. Identical values can stand only once.

What was measured:
virus-infected T cells = details: after exposure of BPD-treated, virus-infected T cells to light; cited from earlier work
[1] = Transcutaneous activation: photodegradation of BPD in plasma in vivo; design: species or system mice; details: for BPD in Plasma: individual values; for photodegraded BPD, Dose / Photodegraded BPD: in vivo
Description: (§1) The light box was custom built at a workshop at the University of British Columbia. It was composed of two layers of 14 75 W tungsten-halogen reflector bulbs (General Electric), which illuminated the treatment area from the top and from the bottom. Light was filtered by 1) a set of filters comprising yellow and red plastic films which absorbed most of the light at wavelengths shorter than 600 nm and 2) 15 mm thick water filters which absorbed light above 900 nm. Cooling was provided by a steady flow of cold water in the water filters and by a set of 5 fans. The light intensity was measured by an IL 1350 Photometer (International Light).
(§2) The intensity of light delivered by the top and bottom sets of bulbs was not uniform. The bottom set delivered 33-40 mW/cm^2 as measured at floor level of the exposure chamber, while the top set delivered 27-33 mW/cm^2 as measured at the skin surface of the backs of the animals. The range described resulted from inconsistent influence at the horizontal plane of irradiation. In addition, mice moved about during light exposure, so that at various times different parts of their skin received different amounts of light. Therefore, the doses delivered to the surface of mice skin must be approximated and the calculations have been based on an intensity of 30 mW/cm^2.
Determination of BPD Concentration in Plasma: Plasma samples were obtained by centrifugation of blood collected from mice and stored frozen at -20° C. until assessment. The concentration of BPD in the samples was determined by fluorometry using a Jasco Model FP-770 (Japan Spectroscopic Co.) spectrofluorometer and a microcuvette (Far UV Quartz Cell, Starna Cells Inc.). Excitation and emission wavelengths were 439 and 699 nm, respectively. Plasma samples were diluted 20-fold with PBS containing 1% Triton® X-100 immediately before fluorescence was determined. BPD standards were prepared in 5% mouse plasma in PBS with 1% Triton® X-100. Under these conditions the relationship between the concentration of BPD and units of fluorescence was linear (correlation coefficient >0.99) for concentrations between 0.1 ng/ml and 1 μg/ml. The limit of detection was below 0.1 ng/ml sample which corresponded to 2 ng/ml plasma. […] The 699 nm fluorescence peak of BPD was virtually free from any interference.
Fourteen mice (weight 22±1 g) were used in this study. Twelve mice were injected with 20 μg (0.9 mg/kg) of liposomal BPD (in 200 μl) and kept in the dark for 1 hour before exposure to light. The mice each were exposed to light for 30 min, 1 hour or 1.5 hours, which delivered light doses to the skin surface of 54, 108 and 162 J/cm^2, respectively. Immediately after light exposure, blood samples were obtained. At the corresponding times, blood samples were obtained from two mice injected with BPD, but not exposed to light. Two additional mice were tested one hour after injection.
The aim of this study was to determine light penetration of the tissues to activate BPD. It was assumed that the substantial photodegradation of BPD in blood would represent substantial activation of BPD.
The BPD plasma concentration was then determined by fluorescence. The concentrations of unchanged BPD in the plasma of exposed and unexposed control mice were compared.

mice skin = assay: Skin photosensitivity tests (skin and behaviour after double treatment); assay type: in vivo, Balb/c mice
Description: Male Balb/c mice (7-11 weeks old; Charles River, Canada) were used in these studies, unless otherwise specified. Balb/c mice were chosen for the studies because of the lack of pigment in their skin. Shaving and depilation removed the hair very effectively from the entire body except the head. Then, the mouse skin appeared quite transparent. Internal organs, especially dark red organs such as liver and spleen, were visible through the skin. The mice were shaved and depilated with a commercially available depilator (Neet® or Nair®) 5 days before being used in the experiments. Control mice, injected with BPD but not exposed to light, were not shaved. Following injection the mice were kept in the dark for various lengths of time, as described below. Before and after the experiments the mice were kept in an animal facility with 12 hours of light and 12 hours of dark daily. After the experiments, in order to reduce the amount of light reaching the mice, their cages were placed on the lowest shelf with aluminum foil placed above them.
as §1, §2
Six Balb/c mice (22±1 g weight) were prepared as described above. Five mice were injected twice (24 hour interval) with BPD from DMSO stock (not liposomal BPD) and exposed to light 1 hour after the injection. One mouse was not injected but was exposed to light (light-only control). During the first treatment the mice were injected with 15 μg BPD/mouse in 200 μl of PBS. During the second treatment the mice were injected with 20 μg BPD/mouse (0.9 mg/kg). A single mouse was used as a control for both treatments.
Immediately post-injection (on both occasions) the animals were kept for 1 hour in the dark and then were placed in individual plastic containers (9×4×5 cm), which were placed in the light box and exposed to light. The individual mice were removed from the light box at different intervals: 15, 30, 45, 60 and 75 min, respectively. The light doses delivered at the surface of the skin were 27, 54, 81, 108 and 135 J/cm^2, respectively. On the second occasion the same light doses were used; however, mice receiving higher light doses on day 1 received lower doses on day 2. The control mouse was exposed to light for 60 min on both occasions. […]

[2] = tested on: tumor tissue, including leukemic cells; details: cited from earlier work
skin = assay: Skin changes and general behavior after treatment (Example 5 and preceding examples); assay type: in vivo, mice; details: maximum observation period 2 weeks
[3] = 1 1/2 h - C, no light, 2 1/2 h post injection, 0.9 mg/kg, 150 min
[4] = 1 1/2 h light, 162 J/cm^2, 2 1/2 h post injection, 0.9 mg/kg, 150 min
[5] = 30 min - C, no light, 1 1/2 h post injection, 0.9 mg/kg, 90 min
[6] = 30 min light, 54 J/cm^2, 1 1/2 h post injection, 0.9 mg/kg, 90 min

benzoprophyrin derivative monoacid ring A [BPD]
effect on virus-infected T cell membrane (virus-infected T cells): holes developed in the T cell membrane, which increased in size until the membrane completely decomposed
BPD in Plasma, Mean ± SD ([1]; 0 h - C, no light, 1 h post injection, 0.9 mg/kg): 1.243 ± 0.262 µg/mL
BPD in Plasma ([1]; 0 h - C, no light, 1 h post injection, 0.9 mg/kg, 60 min): 1.428 µg/mL and 1.058 µg/mL
BPD in Plasma, Mean ± SD [1, 3]: 0.690 ± 0.048 µg/mL
BPD in Plasma [1, 3]: 0.724 µg/mL and 0.656 µg/mL
BPD in Plasma, Mean ± SD [1, 4]: 0.168 ± 0.033 µg/mL
BPD in Plasma [1, 4]: 0.191 µg/mL and 0.145 µg/mL
BPD in Plasma, Mean ± SD [1, 5]: 0.930 ± 0.441 µg/mL
BPD in Plasma [1, 5]: 0.618 µg/mL and 1.242 µg/mL
BPD in Plasma, Mean ± SD [1, 6]: 0.596 ± 0.042 µg/mL
BPD in Plasma [1, 6]: 0.566 µg/mL and 0.626 µg/mL
BPD in Plasma, Mean ± SD ([1]; 1 h - C, no light, 2 h post injection, 0.9 mg/kg): 0.944 ± 0.421 µg/mL
BPD in Plasma ([1]; 1 h - C, no light, 2 h post injection, 0.9 mg/kg, 120 min): 0.646 µg/mL and 1.242 µg/mL
BPD in Plasma, Mean ± SD ([1]; 1 h light, 108 J/cm^2, 2 h post injection, 0.9 mg/kg): 0.301 ± 0.061 µg/mL
BPD in Plasma ([1]; 1 h light, 108 J/cm^2, 2 h post injection, 0.9 mg/kg, 120 min): 0.258 µg/mL and 0.344 µg/mL
photodegraded BPD, Dose ([1]; 54 J/cm^2): 0.334 µg/mL
Photodegraded BPD ([1]; 54 J/cm^2, 0.9 mg/kg): 36%
photodegraded BPD, Dose ([1]; 108 J/cm^2): 0.643 µg/mL
Photodegraded BPD ([1]; 108 J/cm^2, 0.9 mg/kg): 68%
photodegraded BPD, Dose ([1]; 162 J/cm^2): 0.522 µg/mL
Photodegraded BPD ([1]; 162 J/cm^2, 0.9 mg/kg): 76%
BPD photodegraded in blood in vivo ([1]; light doses of 54-162 J/cm^2, 0.9 mg/kg): 36-76%
plasma concentrations of BPD at the beginning of exposure to light ([1]; present study, 0.9 mg/kg, 1 hour after injection): above 3 μg/ml
signs of skin photosensitization (mice skin; 0.9 mg/kg, red light 1 hour after injection, 27 to 135 J/cm^2, two weeks): did not show any signs of skin photosensitization
gross changes in skin (mice skin; Balb/c, i.e. 15 then 20 μg BPD/mouse (DMSO stock), light 27-135 J/cm^2, immediately post-exposure and two weeks): No gross changes were observed in mice skin
effect of the same light dose at lower plasma levels (mice skin; as demonstrated in Example 1): apparently harmless
behaviour / discomfort under the light (mice skin; both days of treatment, 27-135 J/cm^2, except occasional scratching): behaved normally under the light, without any signs of discomfort
behavioral changes (mice skin; two weeks after double treatment): No behavioral changes were observed
affinity for tumor tissue versus normal cells [2]: higher affinity for tumor tissue, including leukemic cells, than for normal non-malignant cells
skin photosensitivity and change in behavior (skin): neither skin photosensitivity nor change in the behavior of animals were observed
